Test results: patent US20230083885A1, “MODULATORS OF INTEGRATED STRESS RESPONSE PATHWAY” (Praxis Biotech LLC, priority 2021, published 2023)
Read-outs that look alike come from different tables or passages of the source.

Experiments:
ATF4 = ATF4 expression inhibition assay (ATF4 5'UTR luciferase reporter, thapsigargin-stressed); assay type: cell-based; settings: Homo sapiens, HEK-293T, read-out: ATF4 inhibition
[1] = system: Chinese hamster ovary (CHO) cells; assay: Protein synthesis assay (puromycin incorporation, Western blot); assay type: cell-based; settings: Cricetulus griseus, read-out: % Protein synthesis relative to untreated (1 μM test compound)

Row | SMILES | IC50 (ATF4; 3 h) [µM] | activity at 1 µM ([1]; CHO, 2 h) [%] | IC50 (ATF4; HEK293T cells carrying ATF4 luciferase reporter, 100 nM thapsigargin, 3 hours) [µM] | activity at 1 µM ([1]; unstressed CHO cells (without Tg), 1 μM test compound, 2 hours, media alone = 100%) [%]
1 | O=C(Nc1ccc2cc(Cl)ccc2n1)[C@H]1CC[C@H](c2nnc(-c3ccc(Cl)cc3)o2)CC1 [Compound 19, trans-4-(5-(4-chlorophenyl)-1,3,4-oxadiazol-2-yl)-N-(6-chloroquinolin-2-yl)cyclohexane-1-carboxamide] | 0.01 to 0.1 | 100 | – | –
2 | O=C(NC[C@H]1CC[C@H](c2nnc(-c3ccc(Cl)cc3)o2)CC1)c1ccc2cc(Cl)ccc2n1 [Compound 1, trans-6-chloro-N-((4-(5-(4-chlorophenyl)-1,3,4-oxadiazol-2-yl)cyclohexyl)methyl)quinoline-2-carboxamide] | > 1 | 158 | – | –
3 | O=C(COc1ccc(Cl)c(F)c1)N[C@H]1CC[C@H](c2nnc([C@@H]3CNc4cc(Cl)ccc4O3)o2)CC1 (single isomer, unassigned) [Compound 42] | – | – | < 0.01 | 79.9
